Measured values as given in publication PMC2758355 (Chemical research in toxicology, 2009).
“Also recorded” adds a separate entry of the source.

How the values were obtained:
[1] = established by JECFA; ref www.fao.org/ag/agn/jecfa-additives; cited from earlier work
ERα [2] = target: T1, ERα (Homo sapiens, UniProt P03372); conditions: cited from earlier work
T1 sequence (P03372 1-595): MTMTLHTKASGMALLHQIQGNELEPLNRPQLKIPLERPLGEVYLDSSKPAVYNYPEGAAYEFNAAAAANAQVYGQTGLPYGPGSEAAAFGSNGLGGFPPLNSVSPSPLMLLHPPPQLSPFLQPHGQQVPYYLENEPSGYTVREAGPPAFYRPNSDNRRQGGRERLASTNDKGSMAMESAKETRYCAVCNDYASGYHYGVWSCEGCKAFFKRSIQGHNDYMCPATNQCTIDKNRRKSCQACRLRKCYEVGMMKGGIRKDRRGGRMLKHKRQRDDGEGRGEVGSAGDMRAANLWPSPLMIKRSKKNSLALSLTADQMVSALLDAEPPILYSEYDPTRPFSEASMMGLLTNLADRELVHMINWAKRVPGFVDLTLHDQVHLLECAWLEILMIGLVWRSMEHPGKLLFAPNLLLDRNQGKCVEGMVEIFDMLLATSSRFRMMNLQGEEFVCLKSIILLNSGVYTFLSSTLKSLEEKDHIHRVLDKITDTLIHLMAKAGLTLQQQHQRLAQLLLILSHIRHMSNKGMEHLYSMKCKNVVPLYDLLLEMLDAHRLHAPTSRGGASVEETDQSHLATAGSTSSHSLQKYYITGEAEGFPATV

ERα [3] = target: T1, ERα; test: Competition binding with [3H]estradiol in MCF-7 cells; conditions: for activity in in vitro assays (result in words): binding and transactivation assays, experimental testing; for Ki: competition with radioactive-labeled estradiol
ER = conditions: cited from earlier work

For `CCCOC(=O)c1cc(O)c(O)c(O)c1` [propyl gallate], the acceptable daily intake [1] is given as 0−1.4 mg/kg, the “transactivation activity (result in words)” value (ERα [2]) is given as “high micromolar range” and the “activity in in vitro assays (result in words)” value (from here on “activity in in vitro assays”) (ERα [3]) is given as “active”. The Ki (ERα [3]; binding constant, Figure 4a) was 54 nM and the Ki (ERα [3]; pKi) was 40.7 nM.
In the case of `COc1cc(CNC(=O)CCCC/C=C/C(C)C)ccc1O` [capsaicin], the “activity in in vitro assays” value (ERα [3]) is reported as “inactive”.
For `CCCOC(=O)c1ccc(O)cc1` [propyl p-hydroxybenzoate], the “binding to ER (result in words)” value (ER) is listed as “known to bind to ER”.
In the case of `CCCCCCCCOC(=O)c1cc(O)c(O)c(O)c1` [octyl gallate], the “activity in in vitro assays” value (ERα [3]) is reported as “only the propyl gallate resulted active”.
For `COc1cc(/C=C/C(=O)CC(=O)/C=C/c2ccc(O)c(OC)c2)ccc1O` [curcumin], the “binding to the receptor in the competition assay (result in words)” value (ERα [3]; competitor 1 nM to 0.25 μM) was “lack binding activity”.
In the case of `CC(Cc1ccc(O)c(O)c1)C(C)Cc1ccc(O)c(O)c1` (centres unmarked) [nordihydroguaiaretic acid], the “binding to ER (result in words)” value (ER) is listed as “known to bind to ER; also recorded: nanomolar binding affinity/potency”.
For `CCCCOC(=O)c1ccc(O)cc1` [butyl p-hydroxybenzoate], the “binding to ER (result in words)” value (ER) is given as “known to bind to ER; also recorded: weak binders”.
